# Results: patent US9676714B2, “Sulfonylindole derivatives and method for preparing the same” (Daewoong Pharmaceutical Co., Ltd., priority 2013, dated 2017)
# Where a name gives a salt, the structure may show the parent alone.
# Target: T1, proton pump (H+/K+-ATPase) (Sus scrofa, UniProt P19156)
# T1 construct: Gastric vesicles were prepared from hog stomach via centrifugal separation; from tissue; host or cells: hog stomach (gastric vesicles, method of Rabon et al. 1988)
# Assay: Measurement of inhibitory effects on proton pump (H+/K+-ATPase) activities
# Format: biochemical
# Settings: hog gastric vesicles, K+-specific H+/K+-ATPase activity, Tris-HCl buffer pH 7.4, 37° C. for 40 minutes, malachite green Pi readout
# Method in brief: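 Hog gastric vesicles in 60 mmol/l Tris-HCl pH 7.4 with 0.5% DMSO were treated with compounds at room temperature; reaction was started with 10 μl of 10 mmol/l ATP stock. Released Pi was read at 570 nm, K+-specific activity taken as the ±K+ difference. IC50 from 4-parameter logistic fit.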
# T1 sequence (P19156 whole entry): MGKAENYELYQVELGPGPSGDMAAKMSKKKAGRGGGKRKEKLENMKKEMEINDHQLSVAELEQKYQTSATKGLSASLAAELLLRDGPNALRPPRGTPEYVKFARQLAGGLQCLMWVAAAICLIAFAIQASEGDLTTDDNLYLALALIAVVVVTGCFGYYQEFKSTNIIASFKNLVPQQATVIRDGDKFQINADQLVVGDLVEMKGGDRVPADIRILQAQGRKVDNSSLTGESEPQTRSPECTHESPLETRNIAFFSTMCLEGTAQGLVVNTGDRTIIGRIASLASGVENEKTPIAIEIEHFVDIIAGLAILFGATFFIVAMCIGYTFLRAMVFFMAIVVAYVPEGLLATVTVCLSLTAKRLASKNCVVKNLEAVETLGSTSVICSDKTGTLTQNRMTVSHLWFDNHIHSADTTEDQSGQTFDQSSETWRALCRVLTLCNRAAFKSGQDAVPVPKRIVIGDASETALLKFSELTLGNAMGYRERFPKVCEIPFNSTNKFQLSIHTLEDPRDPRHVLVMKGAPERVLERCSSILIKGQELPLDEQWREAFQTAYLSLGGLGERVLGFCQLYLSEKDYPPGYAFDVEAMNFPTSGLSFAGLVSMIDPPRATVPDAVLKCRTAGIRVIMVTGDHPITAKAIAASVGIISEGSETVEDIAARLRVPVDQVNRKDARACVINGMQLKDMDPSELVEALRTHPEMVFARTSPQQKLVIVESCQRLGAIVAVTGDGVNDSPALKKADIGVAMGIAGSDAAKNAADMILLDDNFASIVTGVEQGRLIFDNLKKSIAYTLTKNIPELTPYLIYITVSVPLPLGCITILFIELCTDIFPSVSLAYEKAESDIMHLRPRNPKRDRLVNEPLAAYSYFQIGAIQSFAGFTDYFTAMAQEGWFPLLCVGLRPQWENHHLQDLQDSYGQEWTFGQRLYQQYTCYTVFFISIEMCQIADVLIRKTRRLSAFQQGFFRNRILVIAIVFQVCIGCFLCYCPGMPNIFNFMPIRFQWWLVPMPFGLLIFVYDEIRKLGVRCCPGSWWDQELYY
# T1 sequence (P18434 whole entry partner): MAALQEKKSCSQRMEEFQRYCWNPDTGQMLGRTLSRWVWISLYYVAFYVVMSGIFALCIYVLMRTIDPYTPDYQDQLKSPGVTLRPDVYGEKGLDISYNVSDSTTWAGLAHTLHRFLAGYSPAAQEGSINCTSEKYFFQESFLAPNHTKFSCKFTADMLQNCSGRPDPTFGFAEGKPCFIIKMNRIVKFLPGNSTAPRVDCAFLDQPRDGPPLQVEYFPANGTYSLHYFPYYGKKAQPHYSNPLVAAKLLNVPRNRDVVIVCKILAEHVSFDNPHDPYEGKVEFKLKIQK
row,IC50,Structure (SMILES)
1,0.34 µM,"CNCc1cn(S(=O)(=O)c2cccc(OC)c2)c2cc(Nc3ccc(C(F)(F)F)cc3Cl)ccc12 [Example 166, N-(2-chloro-4-(trifluoromethyl)phenyl)-1-((3-methoxyphenyl)sulfonyl)-3-((methylamino)methyl)-1H-indol-6-amine hydrochloride]"
2,0.61 µM,"CNCc1cn(S(=O)(=O)c2cccc(OC)c2)c2cc(Nc3ccc(OC)cc3F)ccc12 [Example 167, N-(2-fluoro-4-methoxyphenyl)-1-((3-methoxyphenyl)sulfonyl)-3-((methylamino)methyl)-1H-indol-6-amine hydrochloride]"
3,0.79 µM,"CNCc1cn(S(=O)(=O)c2cccc(OC)c2)c2cc(Nc3ccc(OC(F)(F)F)cc3C)ccc12 [Example 168, 1-((3-methoxyphenyl)sulfonyl)-N-(2-methyl-4-(trifluoromethoxy)phenyl)-3-((methylamino)methyl)-1H-indol-6-amine hydrochloride]"
4,0.08 µM,"CNCc1cn(S(=O)(=O)c2cccc(OC)c2)c2cc(Nc3ccc(OC(F)(F)F)cc3Cl)ccc12 [Example 169, N-(2-chloro-4-(trifluoromethoxy)phenyl)-1-((3-methoxyphenyl)sulfonyl)-3-((methylamino)methyl)-1H-indol-6-amine hydrochloride]"
5,0.26 µM,"CNCc1cn(S(=O)(=O)c2cccc(OC)c2)c2cc(Nc3ccc(C)c(F)c3F)ccc12 [Example 170, N-(2,3-difluoro-4-methylphenyl)-1-((3-methoxyphenyl)sulfonyl)-3-((methylamino)methyl)-1H-indol-6-amine hydrochloride]"
6,0.63 µM,"CNCc1cn(S(=O)(=O)c2cccc(OC)c2)c2cc(Nc3ccc(C)nc3F)ccc12 [Example 171, N-(2-fluoro-6-methylpyridin-3-yl)-1-((3-methoxyphenyl)sulfonyl)-3-((methylamino)methyl)-1H-indol-6-amine hydrochloride]"
7,1.5 µM,"CNCc1cn(S(=O)(=O)c2cccc(OC)c2)c2cc(Nc3ccc(C)nc3Cl)ccc12 [Example 172, N-(2-chloro-6-methylpyridin-3-yl)-1-((3-methoxyphenyl)sulfonyl)-3-((methylamino)methyl)-1H-indol-6-amine hydrochloride]"
8,1.19 µM,"CNCc1cn(S(=O)(=O)c2cccc(OC)c2)c2cc(Nc3ccc(OC)nc3Cl)ccc12 [Example 173, N-(2-chloro-6-methoxypyridin-3-yl)-1-((3-methoxyphenyl)sulfonyl)-3-((methylamino)methyl)-1H-indol-6-amine hydrochloride]"
9,0.02 µM,"CNCc1cn(S(=O)(=O)c2cccc(OC(F)F)c2)c2cc(Nc3ccc(C)cc3F)ccc12 [Example 174, 1-((3-(difluoromethoxy)phenyl)sulfonyl)-N-(2-fluoro-4-methylphenyl)-3-((methylamino)methyl)-1H-indol-6-amine hydrochloride]"
10,0.15 µM,"CNCc1cn(S(=O)(=O)c2cccc(OC(F)F)c2)c2cc(Nc3ccc(C)cc3Cl)ccc12 [Example 175, N-(2-chloro-4-methylphenyl)-1-((3-(difluoromethoxy)phenyl)sulfonyl)-3-((methylamino)methyl)-1H-indol-6-amine hydrochloride]"
11,0.37 µM,"CNCc1cn(S(=O)(=O)c2cccc(OC(F)F)c2)c2cc(Nc3ccc(Cl)cc3F)ccc12 [Example 176, N-(4-chloro-2-fluorophenyl)-1-((3-(difluoromethoxy)phenyl)sulfonyl)-3-((methylamino)methyl)-1H-indol-6-amine hydrochloride]"
12,1.41 µM,"CNCc1cn(S(=O)(=O)c2cccc(OC(F)F)c2)c2cc(Nc3ccc(Cl)cc3C(F)(F)F)ccc12 [Example 177, N-(4-chloro-2-(trifluoromethyl)phenyl)-1-((3-(difluoromethoxy)phenyl)sulfonyl)-3-((methylamino)methyl)-1H-indol-6-amine hydrochloride]"
13,0.61 µM,"CNCc1cn(S(=O)(=O)c2cccc(OC(F)F)c2)c2cc(Nc3ccc(OC)cc3F)ccc12 [Example 178, 1-((3-(difluoromethoxy)phenyl)sulfonyl)-N-(2-fluoro-4-methoxyphenyl)-3-((methylamino)methyl)-1H-indol-6-amine hydrochloride]"
14,0.33 µM,"CNCc1cn(S(=O)(=O)c2cccc(OC(F)F)c2)c2cc(Nc3ccc(OC(F)(F)F)cc3C)ccc12 [Example 179, 1-((3-(difluoromethoxy)phenyl)sulfonyl)-N-(2-methyl-4-(trifluoromethoxy)phenyl)-3-((methylamino)methyl)-1H-indol-6-amine hydrochloride]"
15,0.27 µM,"CNCc1cn(S(=O)(=O)c2cccc(OC(F)F)c2)c2cc(Nc3ccc(C)c(F)c3F)ccc12 [Example 180, N-(2,3-difluoro-4-methylphenyl)-1-((3-(difluoromethoxy)phenyl)sulfonyl)-3-((methylamino)methyl)-1H-indol-6-amine hydrochloride]"
16,1.28 µM,"CNCc1cn(S(=O)(=O)c2cccc(OC(F)F)c2)c2cc(Nc3ccc(C)nc3F)ccc12 [Example 181, 1-((3-(difluoromethoxy)phenyl)sulfonyl)-N-(2-fluoro-6-methylpyridin-3-yl)-3-((methylamino)methyl)-1H-indol-6-amine hydrochloride]"
17,0.59 µM,"CNCc1cn(S(=O)(=O)c2cccc(C(F)(F)F)c2)c2cc(Nc3ccc(C)cc3F)ccc12 [Example 183, N-(2-fluoro-4-methylphenyl)-3-((methylamino)methyl)-1-((3-(trifluoromethyl)phenyl)sulfonyl)-1H-indol-6-amine hydrochloride]"
18,0.36 µM,"CNCc1cn(S(=O)(=O)c2cccc(C(F)(F)F)c2)c2cc(Nc3ccc(C)cc3Cl)ccc12 [Example 184, N-(2-chloro-4-methylphenyl)-3-((methylamino)methyl)-1-((3-(trifluoromethyl)phenyl)sulfonyl)-1H-indol-6-amine hydrochloride]"
19,1 µM,"CNCc1cn(S(=O)(=O)c2cccc(C(F)(F)F)c2)c2cc(Nc3ccc(Cl)cc3F)ccc12 [Example 185, N-(4-chloro-2-fluorophenyl)-3-((methylamino)methyl)-1-((3-(trifluoromethyl)phenyl)sulfonyl)-1H-indol-6-amine hydrochloride]"
20,0.41 µM,"CNCc1cn(S(=O)(=O)c2cccc(C(F)(F)F)c2)c2cc(Nc3ccc(Cl)cc3C(F)(F)F)ccc12 [Example 186, N-(4-chloro-2-(trifluoromethyl)phenyl)-3-((methylamino)methyl)-1-((3-(trifluoromethyl)phenyl)sulfonyl)-1H-indol-6-amine hydrochloride]"
21,0.98 µM,"CNCc1cn(S(=O)(=O)c2cccc(C(F)(F)F)c2)c2cc(Nc3ccc(C(F)(F)F)cc3Cl)ccc12 [Example 187, N-(2-chloro-4-(trifluoromethyl)phenyl)-3-((methylamino)methyl)-1-((3-(trifluoromethyl)phenyl)sulfonyl)-1H-indol-6-amine hydrochloride]"
22,0.4 µM,"CNCc1cn(S(=O)(=O)c2cccc(C(F)(F)F)c2)c2cc(Nc3ccc(OC)cc3F)ccc12 [Example 188, N-(2-fluoro-4-methoxyphenyl)-3-((methylamino)methyl)-1-((3-(trifluoromethyl)phenyl)sulfonyl)-1H-indol-6-amine hydrochloride]"
23,0.65 µM,"CNCc1cn(S(=O)(=O)c2cccc(C(F)(F)F)c2)c2cc(Nc3ccc(OC(F)(F)F)cc3C)ccc12 [Example 189, N-(2-methyl-4-(trifluoromethoxy)phenyl)-3-((methylamino)methyl)-1-((3-(trifluoromethyl)phenyl)sulfonyl)-1H-indol-6-amine hydrochloride]"
24,0.44 µM,"CNCc1cn(S(=O)(=O)c2cccc(C(F)(F)F)c2)c2cc(Nc3ccc(OC(F)(F)F)cc3OC)ccc12 [Example 190, N-(2-methoxy-4-(trifluoromethoxy)phenyl)-3-((methylamino)methyl)-1-((3-(trifluoromethyl)phenyl)sulfonyl)-1H-indol-6-amine hydrochloride]"
25,0.07 µM,"CNCc1cn(S(=O)(=O)c2cccc(C(F)(F)F)c2)c2cc(Nc3ccc(C)c(F)c3F)ccc12 [Example 191, N-(2,3-difluoro-4-methylphenyl)-3-((methylamino)methyl)-1-((3-(trifluoromethyl)phenyl)sulfonyl)-1H-indol-6-amine hydrochloride]"
26,0.06 µM,"CNCc1cn(S(=O)(=O)c2cccc(C(F)(F)F)c2)c2cc(Nc3ccc(C)nc3Cl)ccc12 [Example 192, N-(2-chloro-6-methylpyridin-3-yl)-3-((methylamino)methyl)-1-((3-(trifluoromethyl)phenyl)sulfonyl)-1H-indol-6-amine hydrochloride]"
27,0.58 µM,"CNCc1cn(S(=O)(=O)c2cccc(C(F)(F)F)c2)c2cc(Nc3ccc(Cl)nc3Cl)ccc12 [Example 193, N-(2,6-dichloropyridin-3-yl)-3-((methylamino)methyl)-1-((3-(trifluoromethyl)phenyl)sulfonyl)-1H-indol-6-amine hydrochloride]"
28,1.27 µM,"CNCc1cn(S(=O)(=O)c2cccc(C(F)(F)F)c2)c2cc(Nc3ccc(C(F)(F)F)nc3Cl)ccc12 [Example 195, N-(2-chloro-6-(trifluoromethyl)pyridin-3-yl)-3-((methylamino)methyl)-1-((3-(trifluoromethyl)phenyl)sulfonyl)-1H-indol-6-amine hydrochloride]"
29,0.39 µM,"CNCc1cn(S(=O)(=O)c2cccc(OC(F)(F)F)c2)c2cc(Nc3ccc(C)cc3Cl)ccc12 [Example 196, N-(2-chloro-4-methylphenyl)-3-((methylamino)methyl)-1-((3-(trifluoromethoxy)phenyl)sulfonyl)-1H-indol-6-amine hydrochloride]"
30,0.85 µM,"CNCc1cn(S(=O)(=O)c2cccc(OC(F)(F)F)c2)c2cc(Nc3ccc(Cl)cc3F)ccc12 [Example 197, N-(4-chloro-2-fluorophenyl)-3-((methylamino)methyl)-1-((3-(trifluoromethoxy)phenyl)sulfonyl)-1H-indol-6-amine hydrochloride]"
